# Experimental data as given in US20150305333A1, “USE OF GLUCOSAMINE AMIDES AS PLANT GROWTH AND YIELD ENHANCERS” (PIONEER HI-BRED INTERNATIONAL, INC., priority 2012, published 2015).
# Experiments:
# [1] = system: canola (Brassica napus) Pioneer hybrid 45H29; assay: Canola field trials 2011: early growth, days to maturity, height, yield; assay type: in vivo; conditions: at plant maturity, averaged across three locations; NPG 10^−7 M, LCO/rhizobia at manufacturers' recommended rates
# Protocol: Three canola (Brassica napus) field trials were conducted in the spring of 2011 to evaluate the effects of NPG on early growth, days to maturity, height and yield for Pioneer hybrid 45H29 planted at research sites near Carman, Neepawa, and Treherne (Manitoba, Canada) in 2011. Seed treatments included an Untreated Control, 10^−7 M NPG, and a mixture of a commercial LCO and rhizobia. An aqueous solution of NPG was applied at 0.25 L/100 kg seed by soaking the seeds in aqueous solutions of the respective treatments for 15 minutes followed by air drying on a tray. Untreated Control seeds were treated identically with the exception of being soaked in water without added NPG, LCO or rhizobia. The LCO/rhizobia mixture was applied to seeds at the manufacturers' recommended rates. […]
# Early growth was scored on a 1-9 scale using a subjective evaluation of the ‘healthiness’ of plants and the soil surface area covered by their leaves when the plants are in the 4-6 leaf stage. […]
# Days to maturity was measured from time of planting to physiological maturity, which was recorded in days from planting until the seeds in the pod, one third of the way up the main raceme, changed color to black in 50% of the plants in a given row or plot. […]
# Plant height was measured at plant maturity. […]
# Yield was measured in bushels per acre of mature seed. […]
# Superior potatoes = assay: Potato field trial 2011: emergence, flowering, vigor, biomass; assay type: in vivo; conditions: for Crop Vigor (1-5 Scale): 3=same as untreated check, 5=visually superior; for Plant Biomass: 117 DAP, above ground
# Protocol: Seed treatments included an Untreated Control, NPG applied as a seed treatment, and NPG applied as a seed treatment followed by two foliar applications. Aqueous solutions of NPG were applied at a 10^−7 M concentration to seed pieces using a spray nozzle and left to soak on a plastic sheet for 20 min.
# Foliar NPG applications were performed 36 and 45 days after planting. Plants were sprayed using a four-nozzle hollow-cone boom containing ceramic disks and CO2 propellant at a speed of 4.5 km/h and 40 psi. The 36 day application utilized a 2.0 L mix size and spray rate of 200 L/ha water volume. The 45 day application utilized a 3.0 L mix size and spray rate of 300 L/ha water volume. Seeds pieces designated for use as the Untreated Control also received the fungicide maintenance treatment.
# The seed pieces were beginning to sprout when planted on June 8th in a loam composed of 34% sand, 48% silt and 18% clay and 2.9% organic matter.
# Potatoes were planted at a rate of 25,000 seed pieces/ha to a depth of 20 cm and hilled using a tractor mounted potato hiller. Weeds were controlled using 3 L/ha of 40.6 wt % linuron. Insects were controlled using 250 ml/ha 18.4 wt % chlorantraniliprole and 80 g/ha 70 wt % acetamiprid insecticides. Disease was controlled using a tank mix of 1.6 kg/ha 75 wt % mancozeb M and 225 g/ha 60 wt % cymoxanil fungicides. Before harvest, plants were sprayed twice (seven days apart) with 39.5 wt % diquat dibromide herbicide at a rate of 2 L/ha. All of the products are industry standards and representative of what is used in commercial production.
# The trial was conducted using a randomized complete block design with a plot size of 2 m by 8 m with a 100 cm row spacing, 30 cm plant spacing and four replications. Due to wet weather, the soil was damp and cloddy during the planting and hilling process.
# Treatments were compared on a “Vigor Scale” of 1 to 5 as follows:
# Potato Plant Biomass was determined at 117 DAP by harvesting five plants above ground level from each plot (Table 7).
# [2] = 10^−7M seed treatment + Foliar, 20 DAP
# [3] = 10^−7M seed treatment + Foliar, 28 DAP
# [4] = 10^−7M seed treatment + Foliar, 40 DAP
structure (smiles),measurement,setting,value
"CCCCCCC=CCCCCCCCC(=O)NC1C(OC)OC(CO)C(O)C1O [NPG, Methyl 2-deoxy-2-N-(hexadece-9,10-cis-eneoyl)-β-D-glucopyranoside]",Plant height,[1],114.2 cm
same,Potato Emergence,Superior potatoes; [2],36a %
same,Crop Vigor (1-5 Scale),Superior potatoes; [2],4.6b
same,Potato Emergence,Superior potatoes; [3],38a %
same,Crop Vigor (1-5 Scale),Superior potatoes; [3],3.9a
same,Potato Flowering,Superior potatoes; [4],22b %
same,Crop Vigor (1-5 Scale),Superior potatoes; [4],3.6a
same,Crop Vigor (1-5 Scale),"Superior potatoes; 10^−7M seed treatment + Foliar, 49 DAP",4.1c
same,Plant Biomass,Superior potatoes; 10^−7M seed treatment + Foliar,2.56a kg/5 Plants
same,Potato Emergence,"Superior potatoes; 10^−7M seed treatment, 20 DAP",30a %
same,Crop Vigor (1-5 Scale),"Superior potatoes; 10^−7M seed treatment, 20 DAP",2.9a
same,Potato Emergence,"Superior potatoes; 10^−7M seed treatment, 28 DAP",39a %
same,Crop Vigor (1-5 Scale),"Superior potatoes; 10^−7M seed treatment, 28 DAP",2.9a
same,Potato Flowering,"Superior potatoes; 10^−7M seed treatment, 40 DAP",0.0a %
same,Crop Vigor (1-5 Scale),"Superior potatoes; 10^−7M seed treatment, 40 DAP",3.1a
same,Crop Vigor (1-5 Scale),"Superior potatoes; 10^−7M seed treatment, 49 DAP",3.5b
same,Plant Biomass,Superior potatoes; 10^−7M seed treatment,2.35a kg/5 Plants
